Assays:
HIVLAI = experiment: Cell-based antiviral assay in MT-2 human-T-lymphoid cells exposed to HIVLAI; design: species or system HIV-1; settings: for antiviral activity (in words): MT-2 cells exposed to HIVLAI
HIV-1 protease = HIV-1 protease (Human immunodeficiency virus type 1 group M subtype B, UniProt P04585); experiment: HIV-1 protease inhibition, spectrofluorometric assay; type: biochemical; settings: for Ki: HIV-1 protease
[1] = at least 5 data points, standard error less than 7%

SMILES: C=CCC1OC(C)CC1OC(=O)NC(Cc1ccccc1)C(O)CN(CC(C)C)S(=O)(=O)c1ccc(OC)cc1 [4a, (2S,3S,5R)-2-allyl-5-methyltetrahydrofuran-3-yl.((2S,3R)-3-hydroxy-4-((N-isobutyl-4-methoxyphenyl)sulfonamido)-1-phenylbutan-2-yl)carbamate]
- antiviral activity (in words) (HIVLAI): did not exhibit any appreciable antiviral activity
- Ki (HIV-1 protease; [1]): 400 pM

SMILES: CC(C)CN(C[C@@H](O)[C@H](Cc1ccccc1)NC(=O)O[C@H]1CO[C@H]2OCC[C@H]21)S(=O)(=O)c1ccc(N)cc1 [Darunavir, darunavir, reference compound]
- EC50 (HIVLAI; Human immunodeficiency virus 1, MT2): 1.6 nM

SMILES: COc1ccc(S(=O)(=O)N(CC(C)C)C[C@@H](O)[C@H](Cc2ccccc2)NC(=O)O[C@H]2C[C@@H](C)O[C@H]2[C@H]2CCCO2)cc1 [4l, (2S,2’R,3S,5R)-5-methyloctahydro-[2,2’-bifuran]-3-yl((2S,3R)-3-hydroxy-4-((N-isobutyl-4-methoxyphenyl)sulfonamido)-1-phenylbutan-2-yl)carbamate]
- antiviral activity (in words) (HIVLAI): did not exhibit any appreciable antiviral activity
- Ki (HIV-1 protease; value printed in pM): 44 pM

SMILES: COC[C@H]1O[C@H](C)C[C@@H]1OC(=O)N[C@@H](Cc1ccccc1)[C@H](O)CN(CC(C)C)S(=O)(=O)c1ccc(OC)cc1 [4h, (2R,3S,5R)-2-(methoxymethyl)-5-methyltetrahydrofuran-3-yl((2S,3R)-3-hydroxy-4-((N-isobutyl-4-methoxyphenyl)sulfonamido)-1-phenylbutan-2-yl)carbamate]
- Ki (HIV-1 protease; value printed in pM): 49 pM
- fold improvement of enzyme affinity compared to compound 4c (HIV-1 protease; relative to compound 4c): over 5 fold

SMILES: COC[C@@H]1O[C@H](C)C[C@@H]1OC(=O)N[C@@H](Cc1ccccc1)[C@H](O)CN(CC(C)C)S(=O)(=O)c1ccc(N)cc1 [4d, (2S,3S,5R)-2-(methoxymethyl)-5-methyltetrahydrofuran-3-yl((2S,3R)-4-((4-amino-N-isobutylphenyl)sulfonamido)-3-hydroxy-1-phenylbutan-2-yl)carbamate]
- fold reduction of protease inhibitory activity over compound 4c (HIV-1 protease; relative to compound 4c): over 300 fold

SMILES: COC[C@H]1O[C@@H](C)C[C@H]1OC(=O)N[C@@H](Cc1ccccc1)[C@H](O)CN(CC(C)C)S(=O)(=O)c1ccc(OC)cc1 [4e, (2R,3R,5S)-2-(methoxymethyl)-5-methyltetrahydrofuran-3-yl.((2S,3R)-3-hydroxy-4-((N-isobutyl-4-methoxyphenyl)sulfonamido)-1-phenylbutan-2-yl)carbamate]
- fold reduction of protease inhibitory activity over compound 4c (HIV-1 protease; relative to compound 4c): ~4 fold

SMILES: COc1ccc(S(=O)(=O)N(CC(C)C)C[C@@H](O)[C@H](Cc2ccccc2)NC(=O)O[C@H]2C[C@@H](C)O[C@H]2[C@@H]2CCCO2)cc1 [4k, (2S,2’S,3S,5R)-5-methyloctahydro-[2,2’-bifuran]-3-yl((2S,3R)-3-hydroxy-4-((N-isobutyl-4-methoxyphenyl)sulfonamido)-1-phenylbutan-2-yl)carbamate]
- antiviral activity (in words) (HIVLAI): did not exhibit any appreciable antiviral activity
- Ki (HIV-1 protease; [1]): 310 pM

From article PMC11957373 (Organic & biomolecular chemistry, 2024)
